Measurements as given in PubChem BioAssay AID1199 (EPA DSSTox, 2008).
Active and inactive are the calls of the source.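 Rule for the calls: active = a tumour-causing dose and a tumour site recorded for mice in at least one sex group; inconclusive = only government mouse studies exist and were judged inadequate; inactive = mouse studies exist but none gave tumours.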

Test system: mouse carcinogenicity bioassay, TD50 from CPDB
Experiment: DSSTox (CPDBAS) Carcinogenic Potency Database Summary Mouse Bioassay Results
In short: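 Chronic long-term mouse cancer bioassays from literature and NCI/NTP, compiled per sex. TD50 is the standardized carcinogenic potency, using the most positive experiment per sex-species; target sites follow author opinion.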

[1] = TD50_Mouse_Note: no positive results, TargetSites_Mouse_Female: no positive results
[2] = TD50_Mouse_Note: TD50 is harmonic mean of more than one positive test, TargetSites_Mouse_Female: liver
[3] = TargetSites_Mouse_Female: liver
[4] = TD50_Mouse_Note: TD50 is harmonic mean of more than one positive test, greater than ten-fold variation among TD50 values for positive res, TargetSites_Mouse_Female: liver
[5] = TargetSites_Mouse_Female: no positive results
[6] = TD50_Mouse_Note: TD50 is harmonic mean of more than one positive test, TargetSites_Mouse_Female: liver, lung
[7] = TD50_Mouse_Note: no positive results

Cc1ccccc1N
Potency (TD50_Mouse_Note: TD50 is harmonic mean of more than one positive test, TargetSites_Mouse_Female: liver, vascular system): 5.85 mmol/kg/day

OC[C@@H](O)[C@@H](O)[C@H](O)[C@H](O)CO[C@H]1O[C@H](CO)[C@@H](O)[C@H](O)[C@H]1O
outcome [1]: inactive; no positive results

CC(O)COC(C)(C)C (stereo not drawn)
Potency [2]: 14.1 mmol/kg/day

CN(C)N=O
Potency (TD50_Mouse_Note: TD50 is harmonic mean of more than one positive test, TargetSites_Mouse_Female: lung, nervous system): 0.00255 mmol/kg/day

O=C(O)CCCc1ccc(N(CCCl)CCCl)cc1
Potency (TD50_Mouse_Note: positive test results only by intraperitoneal or intravenous injection, TD50 is harmonic mean of more than one positive, TargetSites_Mouse_Female: lung): 0.000437 mmol/kg/day

COC(=O)c1ccc(C(=O)OC)cc1
outcome [1]: inactive; no positive results

CCn1c2ccccc2c2cc(N)ccc21
outcome (TD50_Mouse_Note: TD50 is harmonic mean of more than one positive test, TD50_Mouse_mmol was not calculated for this mixture, but Activiity, TargetSites_Mouse_Female: liver): active; liver
Potency [2]: 0.156 mmol/kg/day

C1CCOC1
Potency [3]: 18 mmol/kg/day

Nc1ccc(Oc2ccc(N)c(N)c2)cc1
Potency: 0.0618 mmol/kg/day

CN(C)C(=S)SC(=S)N(C)C
outcome [1]: inactive; no positive results

Cn1cnc([N+](=O)[O-])c1Sc1ncnc2nc[nH]c12
Potency (TargetSites_Mouse_Female: hematopoietic system, vascular system): 0.0322 mmol/kg/day

[Cl-].[Cl-].[Sn+2]
outcome [1]: inactive; no positive results

c1ccc2c(c1)[nH]c1ccccc12
Potency (TD50_Mouse_Note: TD50 is harmonic mean of more than one positive test, TargetSites_Mouse_Female: liver, stomach): 0.981 mmol/kg/day

C=C1C[C@]23C[C@@]1(O)CC[C@H]2[C@@]12C=C[C@H](O)[C@@](C)(C(=O)O1)[C@H]2[C@@H]3C(=O)O
outcome [1]: inactive; no positive results

OC(O)C(Cl)(Cl)Cl
Potency (TD50_Mouse_Note: TD50 is harmonic mean of more than one positive test, TargetSites_Mouse_Female: no positive results): 0.604 mmol/kg/day

C=Cc1cccc[n+]1[O-]
outcome [1]: inactive

Cc1ccc(N)c(C)c1
Potency (TargetSites_Mouse_Female: lung): 0.0787 mmol/kg/day

S=C=Nc1ccccc1
outcome [1]: inactive; no positive results

CCC1NC(=O)C2C(Cl)C(Cl)CN2C(=O)C(CO)NC(=O)CC(c2ccccc2)NC(=O)C(CO)NC1=O (stereo not drawn)
Potency: 0.0412 mmol/kg/day

COC(=O)C(C)(C)Oc1ccc(-c2ccc(Cl)cc2)cc1
Potency [4]: 0.00824 mmol/kg/day

CCOc1ccc(NC(C)=O)cc1
Potency (TD50_Mouse_Note: TD50 is harmonic mean of more than one positive test, greater than ten-fold variation among TD50 values for positive res, TargetSites_Mouse_Female: urinary bladder): 11.9 mmol/kg/day

CN(C)C(=O)Cl
Potency (TD50_Mouse_Note: positive test results only by intraperitoneal or intravenous injection, TargetSites_Mouse_Female: peritoneal cavity): 0.0499 mmol/kg/day

CCCCC(CC)COC(=O)c1ccccc1C(=O)OCC(CC)CCCC (stereo not drawn)
Potency [2]: 1.79 mmol/kg/day

COc1cc(/C=C/C(=O)O[C@H]2CC[C@]34C[C@]35CC[C@]3(C)[C@@H]([C@H](C)CCC=C(C)C)CC[C@@]3(C)[C@@H]5CC[C@H]4C2(C)C)ccc1O
outcome [1]: inactive; no positive results

CC(C)(c1ccc(O)cc1)c1ccc(O)cc1
outcome [1]: inactive; no positive results

ClC(Br)Br
Potency [3]: 0.667 mmol/kg/day

CC(COc1ccccc1)N(CCCl)Cc1ccccc1 (stereo not drawn)
Potency (TD50_Mouse_Note: positive test results only by intraperitoneal or intravenous injection, TD50 is harmonic mean of more than one positive, TargetSites_Mouse_Female: peritoneal cavity): 0.0158 mmol/kg/day

C1CO1
Potency (TD50_Mouse_Note: TD50 is harmonic mean of more than one positive test, TargetSites_Mouse_Female: harderian gland, hematopoietic system, lung, mammary gland, uterus): 1.45 mmol/kg/day

CC(=O)OC/C=C(\C)CCC=C(C)C
outcome [1]: inactive; no positive results

O=C1CCCCCN1
outcome [1]: inactive; no positive results

C#C[C@]1(O)CC[C@H]2[C@@H]3CCc4cc(OC)ccc4[C@H]3CC[C@@]21C
outcome [1]: inactive; no positive results

C#C[C@]1(OC(C)=O)CC[C@H]2[C@@H]3CCC4=CC(=O)CC[C@@H]4[C@H]3CC[C@@]21C
outcome (TD50_Mouse_Note: no positive results are statistically significant, TD50_Mouse_mmol was not calculated for this mixture, but Activiity Sc, TargetSites_Mouse_Female: pituitary gland): active

CC(C)C(C(=O)OC(C#N)c1cccc(Oc2ccccc2)c1)c1ccc(Cl)cc1 (stereo not drawn)
outcome [1]: inactive; no positive results

C=CCOCC1CO1 (stereo not drawn)
Potency [5]: 1.59 mmol/kg/day

NNC(=O)c1ccncc1
Potency (TD50_Mouse_Note: TD50 is harmonic mean of more than one positive test, greater than ten-fold variation among TD50 values for positive res, TargetSites_Mouse_Female: liver, lung, TargetSites_Mouse_BothSexes: mammary gland): 0.198 mmol/kg/day

Cc1cc(N=Nc2c(O)ccc3ccccc23)c(S(=O)(=O)O)cc1Cl
outcome [1]: inactive; no positive results

CC(=O)[O][Hg][c]1ccccc1
outcome [1]: inactive; no positive results

Nc1ccc2cc3ccc(N)cc3nc2c1
outcome (TD50_Mouse_Note: only experiment is NCI/NTP bioassay inadequate, TargetSites_Mouse_Female: NTP bioassay inadequate): ntp bioassay inadequate

CCOC(N)=O
Potency (TD50_Mouse_Note: TD50 is harmonic mean of more than one positive test, greater than ten-fold variation among TD50 values for positive res, TargetSites_Mouse_Female: lung): 0.19 mmol/kg/day

CNC(=O)Oc1cccc2ccccc12
outcome [1]: inactive; no positive results

CC1CC(C)(C)CC(OOC(C)(C)C)(OOC(C)(C)C)C1 (stereo not drawn)
outcome [1]: inactive; no positive results

O=C1C(Cl)=C(Cl)C(=O)c2ccccc21
outcome [1]: inactive; no positive results

O=P1(NCCCl)OCCCN1CCCl (stereo not drawn)
Potency (TD50_Mouse_Note: positive test results only by intraperitoneal or intravenous injection, TargetSites_Mouse_Female: hematopoietic system): 0.0194 mmol/kg/day

C[C@H]([C@H](O)CCC(C)(C)O)[C@H]1CC[C@@]2(O)C3=CC(=O)[C@@H]4C[C@@H](O)[C@@H](O)C[C@]4(C)[C@H]3CC[C@]12C
Potency (TD50_Mouse_Note: TD50 is harmonic mean of more than one positive test, TargetSites_Mouse_Female: mammary gland): 7.7e-05 mmol/kg/day

Cc1c2ccccc2c(C)c2c1ccc1ccccc12
Potency (TargetSites_Mouse_Female: vascular system): 0.000328 mmol/kg/day

COC(=O)C(c1ccccc1)C1CCCCN1N=O (stereo not drawn)
outcome [1]: inactive; no positive results

COc1ccc(N)cc1
outcome [1]: inactive; no positive results

CCCC/C=N/N(C)C=O
Potency [6]: 0.0241 mmol/kg/day

NC(=O)CCCCC(N)=O
outcome [1]: inactive; no positive results

CCCCN(CCCC)N=O
Potency: 0.00689 mmol/kg/day

CCSCCC(N)C(=O)O (stereo not drawn)
Potency [4]: 0.437 mmol/kg/day

Nc1nc(N)nc(N)n1
outcome [1]: inactive; no positive results

CC(CN1c2ccccc2Sc2ccccc21)N(C)C (stereo not drawn)
outcome [1]: inactive; no positive results

CN(C)C=O
outcome [1]: inactive; no positive results

CC(=O)Nc1ccc(N=Nc2cc(C)ccc2O)cc1
Potency [3]: 3.79 mmol/kg/day

CC(C)OC(=O)COc1ccc(Cl)cc1Cl
outcome [1]: inactive; no positive results

COc1ccc(N)c(C)c1
outcome [1]: inactive; ntp bioassay inadequate

NC(=S)NNS(=O)(=O)c1ccccc1
outcome [1]: inactive

CC1=CC(=O)CC(C)(C)C1
outcome [1]: inactive; no positive results

CC(=O)Nc1ccc2c(c1)Cc1ccccc1-2
Potency (TD50_Mouse_Note: TD50 is harmonic mean of more than one positive test, greater than ten-fold variation among TD50 values for positive res, TargetSites_Mouse_Female: liver, urinary bladder): 0.034 mmol/kg/day

ClCC1CO1 (stereo not drawn)
outcome [1]: inactive

Oc1ccccc1-c1ccccc1
outcome [1]: inactive; no positive results

CCCCCCCCS(=O)C(C)Cc1ccc2c(c1)OCO2 (stereo not drawn)
Potency [5]: 0.192 mmol/kg/day

C=CCN(N)CC=C
Potency (TD50_Mouse_Note: TD50 is harmonic mean of more than one positive test, TargetSites_Mouse_Female: lung, stomach): 0.264 mmol/kg/day

NS(=O)(=O)c1cc(C(=O)O)c(NCc2ccco2)cc1Cl
Potency (TargetSites_Mouse_Female: mammary gland): 2.21 mmol/kg/day

Cc1cc(O)c(C)c2c1OC(C)(CCCC(C)CCCC(C)CCCC(C)C)CC2 (stereo not drawn)
Potency: 8.66 mmol/kg/day

CC(Cc1ccccc1)NN (stereo not drawn)
outcome [1]: inactive; no positive results

O=NN(c1ccccc1)c1ccccc1
outcome [1]: inactive; no positive results

OCCN(CCO)CCO
Potency (TD50_Mouse_Note: TD50 is harmonic mean of more than one positive test, TargetSites_Mouse_Female: all tumor bearing animals): 0.67 mmol/kg/day

C=O
Potency [5]: 1.46 mmol/kg/day

C=CC(=O)NCO
Potency (TD50_Mouse_Note: TD50 is harmonic mean of more than one positive test, TargetSites_Mouse_Female: harderian gland, liver, lung, ovary): 0.263 mmol/kg/day

IC(I)I
outcome [1]: inactive; no positive results

CN(N=O)c1ncnc2nc[nH]c12
Potency [5]: 0.101 mmol/kg/day

CC(=O)N(O)c1ccc2c(c1)Cc1ccccc1-2
Potency (TargetSites_Mouse_Female: esophagus, kidney, liver, stomach, urinary bladder): 0.026 mmol/kg/day

O=[Se]=O
outcome [7]: inactive

C1N2CN3CN1CN(C2)C3
outcome [1]: inactive; no positive results

O=C(O)c1ccc(N=Nc2ccc(O)c(C(=O)O)c2)cc1
outcome [1]: inactive; no positive results

NNC(N)=O
Potency (TD50_Mouse_Note: TD50 is harmonic mean of more than one positive test, TargetSites_Mouse_Female: lung, vascular system): 2 mmol/kg/day

O=C(O)COc1cc(Cl)c(Cl)cc1Cl
outcome [1]: inactive; no positive results

OC[C@@H](O)[C@@H](O)[C@H](O)[C@H](O)CO
outcome [1]: inactive; no positive results

O=C(O)[C@@H]1[C@H](C(=O)O)[C@@]2(Cl)C(Cl)=C(Cl)[C@]1(Cl)C2(Cl)Cl
Potency [5]: 0.363 mmol/kg/day

COC(=O)C1=C(C)NC(C)=C(C(=O)OCCc2ccc(N3CCN(C(c4ccccc4)c4ccccc4)CC3)cc2)C1c1cccc([N+](=O)[O-])c1 (stereo not drawn)
outcome [1]: inactive; no positive results

CC(C)(OCc1ccc(-c2ccc(Cl)cc2)cc1)C(=O)O
Potency [5]: 0.505 mmol/kg/day

O.O.O.O.O.O.O.O=S(=O)([O-])[O-].[Co+2]
Potency (TD50_Mouse_Note: TD50 is harmonic mean of more than one positive test, TargetSites_Mouse_Female: lung): 0.00269 mmol/kg/day

Cc1ccc2c(-c3ccccc3)nc(=O)n(C(C)C)c2c1
outcome [1]: inactive; no positive results

Cc1cnc2ccc3c(nc(N)n3C)c2n1
Potency [6]: 0.114 mmol/kg/day

Nc1ccc(N=Nc2ccc(N)cc2)cc1
outcome [1]: inactive; no positive results

Oc1cccc2cccnc12.Oc1cccc2cccnc12.[Cu]
outcome [1]: inactive; no positive results

ClC(Cl)=C(Cl)c1c(Cl)c(Cl)c(Cl)c(Cl)c1Cl
outcome [7]: inactive; no positive results

Cc1cccc(C)c1NC(=O)CN1CCCC1=O
outcome [1]: inactive; no positive results

COc1c2occc2cc2ccc(=O)oc12
outcome [1]: inactive; no positive results

Nc1ccc(Nc2ccccc2)cc1
outcome [1]: inactive; no positive results
